Patent US5459256A, “Lipophilic, aminohydrolase-activated prodrugs” (priority 1991, dated 1995)
Each block holds one compound with its values, some of them ahead of it.

Columns and labels:
[1] = biological target: T1, adenosine deaminase (adenosine aminohydrolase, EC 3.5.4.4) (Bos taurus, UniProt P56658); experiment: Enzymatic deamination by adenosine deaminase (HPLC)
T1 sequence (P56658 1-363): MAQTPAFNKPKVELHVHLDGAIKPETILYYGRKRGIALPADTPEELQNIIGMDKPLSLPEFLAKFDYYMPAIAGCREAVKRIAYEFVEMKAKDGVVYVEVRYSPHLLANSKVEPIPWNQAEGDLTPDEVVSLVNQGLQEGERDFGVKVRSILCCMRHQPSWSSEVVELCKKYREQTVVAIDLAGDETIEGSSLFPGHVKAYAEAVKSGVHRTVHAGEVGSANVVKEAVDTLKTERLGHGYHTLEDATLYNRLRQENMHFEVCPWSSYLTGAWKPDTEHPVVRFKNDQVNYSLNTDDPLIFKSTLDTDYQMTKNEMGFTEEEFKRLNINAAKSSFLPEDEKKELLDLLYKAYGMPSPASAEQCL
Procedure: FIG. 1. Deamination of dideoxyadenosine analogues by adenosine deaminase. Hydrolysis kinetics and 2'-F-dd-ara-I formation during the incubation of 50 μM N^6 -CH3 -2'-F-dd-ara-A (1f) with 0.7 units/mL of adenosine deaminase at 37° C. A unit of adenosine deaminase is the amount of enzyme which hydrolyzes a standard substrate (e.g., adenosine) at the rate of 1.0 μmole/min at 25° C. and pH 7.5. […] Insert: Adenosine deaminase hydrolysis kinetics for 50 μM ddA and 2'-F-dd-ara-A. The hydrolysis curve for ddA has been extrapolated from kinetics obtained with 0.07 units/mL of adenosine deaminase under identical conditions.
A 50 μl aliquot of a 10 mg/ml suspension of adenosine deaminase (adenosine aminohydrolase, EC 3.5.4.4) from calf intestinal mucosa was centrifuged at 600×g for 3 min. The residue remaining after removal of the (NH4)2 SO4 supernatant was dissolved in 0.5 ml pH 7.4 tris(hydroxymethyl)-aminomethane (Tris) buffer to give an enzyme solution of 1 mg/ml (274 units/ml). […] A pH 7.4 buffer was prepared by adjusting 0.01M Tris to pH 7.4 with 0.5N HCl, The 1.0 HCl , HPLC-grade acetonitrile, monobasic potassium phosphate, sodium hydroxide and ultrapure Tris were all commercially available and were used without further purification.
Enzymatic Deamination of Adenosine Analogues. […] A 50 μL aliquot of substrate solution was diluted with 0.95 ml 0.01M Tris buffer in a 1.5-mL Eppendorf tube and equilibrated at 37° C. in a Dubnoff metabolic shaking incubator. Reaction was initiated by addition of 2.5 μL of adenosine deaminase solution (0.7 unit). At specified time intervals, a 50 μL aliquot of the reaction mixture was withdrawn and quenched by mixing with 0.45 mL cold 2 μM 2'-deoxycoformycin. This diluted sample was ultrafiltered to remove enzyme in a Centrifree Micropartition unit by centrifugation at 600×g at 4° C. in a high speed refrigerated centrifuge. The decrease in substrate concentration was monitored by HPLC analysis of the resultant ultrafiltrate (see below). The ability of 2'-deoxycoformycin to inhibit deamination under the above conditions was evaluated by adding 2 μL of 1.0 mM inhibitor to diluted substrate solutions at the time of equilibration. Reaction, sampling and analysis were carried out as above. […] Initial hydrolysis rates for each substrate concentration were measured through linear least-squares curve fitting of the concentration versus time data for reaction of the first 10% of substrate. KM and vmax values for each substrate were then determined from a graphical lineweaver-Burke plot of these initial rates (FIG. 1).
HPLC Analysis of Dideoxypurine Nucleosides.
Concentrations of dideoxynucleosides were measured by the HPLC analysis of 100 μL aliquots of ultrafiltered samples. A 4.6×250 mm 5-μm Ultrasphere-ODS column, protected by a Waters guard column packed with 37-50 μm Vydac 201SC, was eluted with 10-20% CH3 CN in 0.01M pH 7.0 phosphate buffer at a flow rate of 1.0 mL/min. Dideoxynucleosides and deamination products were detected at the appropriate wavelength of maximum absorption with a Gilson 116 variable wavelength detector. Peak identity was determined from coincidence of retention times with standards and by comparison of on-the-fly UV spectra obtained with a Perkin-Elmer LC-235 diode array detector. Peak areas and peak heights were measured simultaneously on a Spectra-Physics SP4200 computing integrator.

[2] = test system: HIV-1/IIIB (CD4^+ ATH8 cells); experiment: HIV cytopathic effect inhibition assay in ATH8 cells (% protection); type: cell-based; settings: for anti-HIV activity (in words): ATH8 cells, no additive
Procedure: (§1) HIV Cytopathic Effect Inhibition Assay.
(§2) The HIV cytopathic effect inhibition assay was performed as previously described. (Mitsuya, H. & Broder, S. Proc. Nat. Acad. Sci. USA 1986, 83, 1911) Briefly, 200,000 target CD4^+ ATH8 cells were exposed to cell-free HIV-1/IIIB at a dose of 43 (or 1087 for compound 1g) TCID50 (50% tissue culture infectious dose) for 1 h, resuspended in 2 ml of fresh culture media containing interleukin 2, and cultured at 37° C. with or without test compounds in 5% CO2 -containing humidified air. On day 8 in culture, the viable cells were counted by using the dye exclusion method. All compounds, including inactives, were evaluated a minimum of two times in separate experiments. Data reported in Table II are from representative tests. The % protection against the virus was determined by the following formula: 100 times [(the number of viable cells exposed to HIV-1 and cultured in the presence of the compound minus the number of viable cells exposed to HIV-1 and cultured in the absence of compound) divided by (the number of viable cells cultured alone minus the number of viable cells exposed to HIV-1 and cultured in the absence of the compound)]. The % toxicity of a compound on the target cells was determined by the following formula: 100 times [1 minus (the number of total viable cells cultured in the presence of the compound divided by the number of total viable cells cultured alone)]. Calculated percentages equal to or less than zero are expressed as 0%.
^a ATH8 cells were exposed to HIV1/IIIB per cell for 1 hr and
cultured in the presence of various concentrations of each compound. On
day 8, the total viable cells were counted. Orders of numbers in the
column for concentrations correspond to the orders of numbers in other

[3] = Octanol-water partition coefficient, microscale shake-flask
Procedure: Measurement of Octanol-Water Partition Coefficients.
n-Octanol-water partition coefficients (P) were determined by a microscale shake-flask procedure, (Ford, H. et al Abstracts of Papers, 200th National Meeting of the American Chemical Society, Washington, D.C.; American Chemical Society: Washington, D.C., 1990; CARB 13) which was modification of an earlier method (Nahum, A. & Horvath, C. J. Chromatogr. 1980, 192, 315). A 20 μL aliquot of a 0.5 mg/mL DMSO solution of the dideoxynucleoside was dissolved in 1.0 mL of octanol-saturated, pH 7.0, 0.01M potassium phosphate buffer. This was mixed thoroughly with 1.0 ml of buffer-saturated n-octanol in a 2-mL Mixxor apparatus at 24°-26° C. and then allowed to stand for 15 min. The phases were separated, centrifuged at 600×g for 5 min, and the relative concentration of sample in each phase determined by HPLC analysis of a 50 μl aliquot. The partition coefficient was calculated by dividing the absolute area of the appropriate integrated peak from the octanol phase by that of the buffer phase (Table I).
Octanol/pH 7.0 buffer partition coefficients were determined using a newly developed microscale method. […] The addition of a methyl group normally increases the log P value of a compound by about 0.5.

[4] = test system: CD4^+ ATH8 cells; experiment: Toxicity on ATH8 target cells (% toxicity, dye exclusion); type: cell-based
Procedure: as §1
as §2, with “(Mitsuya, H. & Broder, S. Proc. Nat. Acad. Sci. USA 1986, 83, 1911) Briefly, 200,000 target CD4^+ ATH8 cells were exposed to cell-free HIV-1/IIIB at a dose of 43 (or 1087 for compound 1g) TCID50 (50% tissue culture infectious dose) for 1 h, resuspended in 2 ml of fresh culture media containing interleukin 2, and cultured at 37° C. with or without test compounds in 5% CO2 -containing humidified air.” left out

[5] = as above; type: cell-based; settings: human, ath8 cells
Procedure: as §1
as §2, with “(Mitsuya, H. & Broder, S. Proc. Nat. Acad. Sci. USA 1986, 83, 1911) Briefly, 200,000 target CD4^+ ATH8 cells were exposed to cell-free HIV-1/IIIB at a dose of 43 (or 1087 for compound 1g) TCID50 (50% tissue culture infectious dose) for 1 h, resuspended in 2 ml of fresh culture media containing interleukin 2, and cultured at 37° C. with or without test compounds in 5% CO2 -containing humidified air.” left out

[6] = octanol/ph 7.0 buffer, pH 7, octanol/pH 7.0 buffer partition coefficient (P)
[7] = additive alone, no test compound
[8] = octanol/ph 7.0 buffer, pH 7, Log P
[9] = without dCF, read-out: % Toxicity

SMILES: Nc1c2ncn([C@@H]3O[C@H](CO)C[C@@H]3F)c2nc[n+]1[O-] [Compound 21, 9-(2',3'-Dideoxy-2'-fluoro-β-D-arabinofuranosyl)adenine-1-oxide]
- deamination by ADA (in words) ([1]; 0.7 U/mL ADA, 37° C.): no deamination was observed
- anti-HIV activity (in words) [2]: abolished activity
- logD ([3]; octanol/ph 7.0 buffer, pH 7): -1.38
- logD [3, 6]: -1.4

SMILES: OC[C@H]1O[C@@H](n2cnc3c2NC=NC[C@H]3O)C[C@@H]1O [dCF, 2'-Deoxycoformycin, reference compound]
- toxicity / viability effect of additive alone (in words) [4, 7]: did not produce significant toxicity
- protection by additive alone (in words) [2, 7]: did not produce significant toxicity or protection of ATH8 cells against the effects of HIV-1

SMILES: Cc1cn([C@H]2C[C@H](N=[N+]=[N-])[C@@H](CO)O2)c(=O)[nH]c1=O [AZT, reference compound]
- partitioning (in words) ([3]; octanol and pH 7.0 buffer): partitions into octanol and pH 7.0 buffer almost equally
- Log P ([3]; octanol/pH 7.0 buffer, 24°-26° C., Table I mean ± standard deviation of three determinations): 0.05 ± 0.01

SMILES: Nc1ncnc2c1ncn2[C@H]1CC[C@@H](CO)O1 [ddA, dideoxyadenosine, reference compound]
- cytotoxicity at 192 h, 10 µM ([5]; with dCF (5 μm)): 22%
- cytotoxicity at 192 h, 10 µM ([5]; without dCF): 0%
- toxicity in the presence of dCF (in words) ([4]; ATH8 cells, dCF added): appeared to be potentiated
- t1/2 of hydrolysis by adenosine deaminase ([1]; 50 μM, extrapolated from 0.07 units/mL ADA to 0.7 units/mL, 37° C.): 5 s
- half-life at 50 µM ([1]; bovine, adenosine deaminase): 5 s
- % Protection ([2]; 10 μM, with dCF (5 μm), 11520 min): 86%
- inhibition at 10 µM ([2]; Human immunodeficiency virus 1, IIIB, ATH-8, 192 h, 10 μM, without dCF): 100%
- logD [3, 8]: -0.29 ± 0.01

SMILES: O=c1[nH]cnc2c1ncn2[C@H]1CC[C@@H](CO)O1 [ddI, dideoxyinosine, reference compound]
- cytotoxicity at 192 h, 20 µM [5, 9]: 0%
- inhibition at 20 µM ([2]; Human immunodeficiency virus 1, IIIB, ATH-8, 192 h, 20 μM, without dCF): 100%

SMILES: Cc1nc(N)c2ncn([C@@H]3O[C@H](CO)C[C@@H]3F)c2n1 [Compound 1d, 2-methyl-9-(2', 3'-dideoxy-2'-fluoro-β-D-arabinofuranosyl)adenine]
- anti-HIV activity (in words) [2]: the methyl group in the 2-position abolished activity
- logD ([3]; octanol/ph 7.0 buffer, pH 7): 0.12 ± 0.02

Continued, in another order:

- logD [3, 8]: 0.64 ± 0.01
SMILES: CNc1nc(C)nc2c1ncn2[C@@H]1O[C@H](CO)C[C@@H]1F [Compound 1e, 2,N^6 -Dimethyl-9-(2',3'-dideoxy-2'-fluoro-β-D-arabinofuranosyl)adenine]
- anti-HIV activity (in words) [2]: the methyl group in the 2-position abolished activity

- logD [3, 8]: 0.1 ± 0.01
SMILES: Cc1nc2c(N)ncnc2n1[C@@H]1O[C@H](CO)C[C@@H]1F [Compound 1h, 8-Methyl-9-(2',3'-dideoxy-2'-fluoro-β-D-arabinofuranosyl)adenine]

- logD [3, 8]: -0.4 ± 0.01
SMILES: OC[C@@H]1C[C@H](F)[C@H](n2cnc3cncnc32)O1 [Compound 1c, 9-(2',3'-dideoxy-2'-fluoro-β-D-arabinofuranosyl)-9-H-purine]
- anti-HIV activity (in words) [2]: abolished activity

- Log P ([3]; octanol/ph 7.0 buffer, pH 7): 0.70 ± 0.02
- logD [3, 8]: 0.73
- logD [3, 6]: 0.732
SMILES: O=C(Nc1ncnc2c1ncn2[C@@H]1O[C@H](CO)C[C@@H]1F)c1ccccc1 [Compound 1g, N^6-benzoyl-9-(2',3'-dideoxy-2'-fluoro-β-D-arabinofuranosyl)adenine]
- cytotoxicity at 192 h, 5 µM ([5]; 5 μM, without dCF): 2%
- cytotoxicity at 192 h, 20 µM [5, 9]: 0%
- cytotoxicity at 192 h, 50 µM ([5]; 50 μM, without dCF, read-out: % Toxicity): 0%
- cytotoxicity at 192 h, 100 µM ([5]; 100 μM, without dCF, read-out: % Toxicity): 8%
- anti-HIV activity (in words) [2]: preservation of modest activity
